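Protocol summary: plate cells (96-well), add compound at 5 concentrations, incubate 48 h, interpolate endpoints linearly. GI50 marks 50% less growth. TGI: concentration producing complete growth inhibition.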
tested on: MDA-MB-468 breast; assay: NCI-60 cell line screen, 48 h

Structure (SMILES) | GI50 [nM] | TGI [nM]
CC[C@@H](C)Nc1cc(C(=O)NC2CC3CCC(C2)N3c2ccc(C(=O)C3CC3)cn2)c(C)cc1C(N)=O (stereo partly specified) | 18.9 | 83.8
COc1cc(-c2ccc(NC(=O)NC3CC3)c(OC)c2)ccc1NC(=O)NC1CC1 | > 100000 | > 100000
O=S(=O)(Nc1ccc2ccccc2c1)c1ccc(-c2cnc(C3CC3)o2)cc1 | 327 | 12000
CCCCCCN(C)Cc1ccc(OCCOc2ccc(CN(C)CCCCCC)cc2)cc1 | 1160 | 2480
CCOc1c(C#N)c2c(N)ncnc2n1C1OC(CO)C(O)C1O (stereo unspecified) | 1750 | 5980
CC[C@]12C=CCN3CC[C@@]4(c5ccc(OC)cc5N(C)[C@H]4[C@@](O)(C(=O)OC)[C@@H]1OC(=O)CCC(=O)N[C@H](Cc1c[nH]c4ccccc14)C(=O)OC)[C@@H]32 | 1640 | 3140
COc1cc(/C=C\c2cc(/C=C\c3ccc(O)c(OC)c3)n(C(=O)CNc3ccc(Cl)cc3)n2)ccc1O | 3170 | 9690
Oc1ccc(CSc2nnc(-c3ccc(Cl)cc3)o2)c2cccnc12 | 2470 | > 100000
CC(C)CCC(=O)[C@@H](C)[C@H]1[C@@H](OC2OCC(O)C(O)C2NS(C)(=O)=O)C[C@H]2[C@@H]3CC=C4C[C@@H](O)CC[C@]4(C)[C@H]3CC[C@]12C (stereo partly specified) | 3380 | 11200
COC(=O)c1ccc2c(c1)c1c(C)c3ccncc3c(C)c1n2C | 767 | 15200
COc1cc2ncn(-c3cc(OCc4ccccc4C(F)(F)F)c(C(C)=O)s3)c2cc1OC | > 23300 | > 25000
O=C(NNC(=S)Nc1ccccc1)c1ccccn1 | 2840 | 90900
O=C(Nc1cccc(Cl)c1)c1cc(N=Nc2ccc([N+](=O)[O-])cc2Cl)ccc1O | 2910 | > 100000
C=C1CCC2C3(C)COC(c4ccc(Cl)cc4)OC3CCC2(C)C1/C=C/C1=CCOC1=O (stereo unspecified) | 502 | 6250
CC(=O)C1CCC2C3CC=C4CC(SC(=N)N)CCC4(C)C3CCC12C (stereo unspecified) | 1540 | 2900
C/C=C(/C)C(=O)OC1C=C(CO)C(=O)C(OC(=O)C(C)(O)C(C)Cl)C1C(C)C (stereo unspecified) | 1050 | 2800
CN1CCN(Cc2ccc(NC(=O)c3cncc(C#Cc4cnn5ccccc45)c3)cc2C(F)(F)F)CC1 | 965 | 2080
O=C(Nc1nc(-c2ccc(Cl)cc2)nc2c1sc(=S)n2-c1ccccc1)C(F)(F)F | 3790 | 20500
COc1ccc(/C=C\c2cc(OC)c(OC)c(OC)c2)c(O)c1O | 74.1 | 21400
O=C(Nc1cccnc1)c1ccc2ccc3ccc(C(=O)Nc4cccnc4)nc3c2n1 | 69.7 | 442
O=C(Nc1ccc2c(c1)OCO2)C(=O)c1c[nH]c2cc(F)ccc12 | 5700 | 67900
Cc1nnc(-c2ccc(C)c(-c3ccc(C(=O)NCc4ccc(Cl)cc4)cc3)c2)o1 | 2910 | 15100
CC(C)(C)c1ccc(O)c(CN(Cc2cc(C(C)(C)C)ccc2O)C2CCCCC2)c1 | 4400 | 19200
CCOC(=O)c1csc(NC(=O)COc2cccc(/C=C3\CSc4ccccc4C3=O)c2)n1 | 66.1 | 185
CC(C)(C)NC/C(=C\c1ccccc1)C(=O)c1ccccc1 | 713 | 2180
O=C(Cn1c(C(=O)c2ccccc2)nc2ccccc21)c1ccc(F)cc1 | 2020 | 16600
CC1(O)Cc2c(O)c3c(c(O)c2CC1O)C(=O)C=CC3=O (stereo unspecified) | 553 | 1930
Nc1nc(N)c2c(n1)NC(c1ccc(Cl)cc1)CC(c1ccc(Nc3nc(NCCO)nc(Nc4ccc(Cl)cc4)n3)cc1)=N2 (stereo unspecified) | 1390 | 2790
